Laboratory results reported in paper PMC7211198, “Phase 1b study of a small molecule antagonist of human chemokine (C-C motif) receptor 2 (PF-04136309) in combination with nab-paclitaxel/gemcitabine in first-line treatment of metastatic pancreatic ductal adenocarcinoma” (Investigational New Drugs, 2019).

Test: Safety and tolerability (TEAEs, SAEs, DLTs, RP2D) in phase Ib study
Assay type: in vivo, human
Text: Safety assessments included collection of adverse events (AEs), serious AEs (SAEs), vital signs and physical examination, electrocardiogram (12-lead), laboratory assessments, including pregnancy test, and verification of concomitant treatments. A patient was considered as DLT-evaluable if the patient experienced a DLT or if otherwise, in the absence of a DLT, the patient received at least 85% of the planned doses of each study drug in the first 28-day cycle. DLTs were defined as any of the following events occurring in the first cycle of treatment (days 1 through 28) and attributed (i.e., judged to be at least possibly related) to the combination of PF-04136309 plus nab-paclitaxel/gemcitabine, where relationship with the combination could not be ruled out. DLTs were hematologic events of grade 4 neutropenia lasting >5 days; febrile neutropenia; grade ≥ 3 neutropenic infection; grade ≥ 3 thrombocytopenia with grade ≥ 2 bleeding; grade 4 thrombocytopenia; and nonhematologic events of grade 3 toxicities. Exceptions included nausea and vomiting responding to prophylaxis and/or treatment and lasting <7 days from each chemotherapy infusion period; diarrhea responding to treatment and lasting <7 days; grade 3 fatigue lasting <7 days; grade 3 QT interval corrected for heart rate prolongation (>500 msec) persisting after correction of any reversible causes; and/or grade 3 aspartate aminotransferase (AST) and/or alanine aminotransferase (ALT) increase lasting ≤7 days. All grade 4 toxicities and a delay of >2 weeks in receiving the next scheduled cycle due to persistent treatment-related toxicities were considered DLTs. AEs meeting DLT criteria in the dose-expansion phase included grade 3 events of diarrhea, hypokalemia, and dysesthesia and grade 4 hypoxia. […] AEs were graded according to the National Cancer Institute Common Terminology Criteria for Adverse Events, version 4.03.

[1] = 500 mg BID + nab-P/Gem, treatment-related SAE
[2] = 750 mg BID + nab-P/Gem, n = 4, treatment-related TEAE
[3] = 750 mg BID + nab-P/Gem, all-causality SAE
[4] = 750 mg BID + nab-P/Gem, all-causality TEAE

O=C(NCC(=O)N1CC[C@H](N[C@H]2CC[C@@](O)(c3ccc(-c4ncccn4)cn3)CC2)C1)c1cccc(C(F)(F)F)c1 [PF-04136309]
Any SAE, Grade 3 [1]: 3 (17.6) n (%) | Any SAE, Grade 4 [1]: 1 (5.9) n (%) | Any SAE, Grade 5 [1]: 1 (5.9) n (%) | Any SAE, Total [1]: 5 (29.4) n (%) | Hypoxia, Grade 1 [1]: 0 n (%) | Hypoxia, Grade 2 [1]: 0 n (%) | Hypoxia, Grade 3 [1]: 0 n (%) | Hypoxia, Grade 4 [1]: 1 (5.9) n (%) | Hypoxia, Grade 5 [1]: 0 n (%) | Hypoxia, Total [1]: 1 (5.9) n (%) | Pneumonia, Grade 1 [1]: 0 n (%) | Pneumonia, Grade 2 [1]: 0 n (%) | Pneumonia, Grade 3 [1]: 0 n (%) | Pneumonia, Grade 4 [1]: 0 n (%) | Pneumonia, Grade 5 [1]: 1 (5.9) n (%) | Pneumonia, Total [1]: 1 (5.9) n (%) | Pneumonitis, Grade 1 [1]: 0 n (%) | Pneumonitis, Grade 2 [1]: 0 n (%) | Pneumonitis, Grade 3 [1]: 3 (17.6) n (%) | Pneumonitis, Grade 4 [1]: 0 n (%) | Pneumonitis, Grade 5 [1]: 0 n (%) | Pneumonitis, Total [1]: 3 (17.6) n (%) | Pyrexia, Grade 1 [1]: 0 n (%) | Pyrexia, Grade 2 [1]: 1 (5.9) n (%) | Pyrexia, Grade 3 [1]: 0 n (%) | Pyrexia, Grade 4 [1]: 0 n (%) | Pyrexia, Grade 5 [1]: 0 n (%) | Pyrexia, Total [1]: 1 (5.9) n (%) | DLT events (500 mg BID starting dose, three of 17 patients, four DLTs): grade 3 dysesthesia, diarrhea, and hypokalemia and one event of grade 4 hypoxia | DLT (750 mg BID + nab-P/Gem, n = 4, first cycle (days 1 through 28)): 1 (25) n (%) | ALT increase, grade ≥3 [2]: 1 (25.0) n (%) | AST increase, grade ≥3 [2]: 1 (25.0) n (%) | Anemia, grade ≥3 [2]: 0 n (%) | Fatigue, grade ≥3 [2]: 0 n (%) | Leukopenia, grade ≥3 [2]: 3 (75.0) n (%) | Lymphopenia, grade ≥3 [2]: 1 (25.0) n (%) | Neutropenia, grade ≥3 [2]: 3 (75.0) n (%) | Pneumonitis, grade ≥3 [2]: 0 n (%) | Any SAE, Grade 1 [3]: 0 n (%) | Any SAE, Grade 2 [3]: 1 (25.0) n (%) | Any SAE, Grade 3 [3]: 2 (50.0) n (%) | Any SAE, Grade 4 [3]: 0 n (%) | Any SAE, Grade 5 [3]: 0 n (%) | Any SAE, Total [3]: 3 (75.0) n (%) | Appetite decrease, Grade 1 [3]: 0 n (%) | Appetite decrease, Grade 2 [3]: 0 n (%) | Appetite decrease, Grade 3 [3]: 1 (25.0) n (%) | Appetite decrease, Grade 4 [3]: 0 n (%) | Appetite decrease, Grade 5 [3]: 0 n (%) | Appetite decrease, Total [3]: 1 (25.0) n (%) | Cellulitis, Grade 1 [3]: 0 n (%) | Cellulitis, Grade 2 [3]: 0 n (%) | Cellulitis, Grade 3 [3]: 1 (25.0) n (%) | Cellulitis, Grade 4 [3]: 0 n (%) | Cellulitis, Grade 5 [3]: 0 n (%) | Cellulitis, Total [3]: 1 (25.0) n (%) | Cognitive disorder, Grade 1 [3]: 0 n (%) | Cognitive disorder, Grade 2 [3]: 0 n (%) | Cognitive disorder, Grade 3 [3]: 1 (25.0) n (%) | Cognitive disorder, Grade 5 [3]: 0 n (%) | Cognitive disorder, Total [3]: 1 (25.0) n (%) | Gastroesophageal reflux disease, Grade 1 [3]: 0 n (%) | Gastroesophageal reflux disease, Grade 2 [3]: 0 n (%) | Gastroesophageal reflux disease, Grade 3 [3]: 1 (25.0) n (%) | Gastroesophageal reflux disease, Grade 4 [3]: 0 n (%) | Gastroesophageal reflux disease, Grade 5 [3]: 0 n (%) | Gastroesophageal reflux disease, Total [3]: 1 (25.0) n (%) | Rash, Grade 1 [3]: 0 n (%) | Rash, Grade 2 [3]: 1 (25.0) n (%) | Rash, Grade 3 [3]: 0 n (%) | Rash, Grade 4 [3]: 0 n (%) | Rash, Grade 5 [3]: 0 n (%) | Rash, Total [3]: 1 (25.0) n (%) | ALT increase, Grade 1 [4]: 0 n (%) | ALT increase, Grade 2 [4]: 2 (50.0) n (%) | ALT increase, Grade 3 [4]: 1 (25.0) n (%) | ALT increase, Grade 4 [4]: 0 n (%) | ALT increase, Grade 5 [4]: 0 n (%) | ALT increase, Total [4]: 3 (75.0) n (%) | Alopecia, Grade 1 [4]: 2 (50.0) n (%) | Alopecia, Grade 2 [4]: 1 (25.0) n (%) | Alopecia, Grade 3 [4]: 0 n (%) | Alopecia, Grade 4 [4]: 0 n (%) | Alopecia, Grade 5 [4]: 0 n (%) | Alopecia, Total [4]: 3 (75.0) n (%) | Anemia, Grade 1 [4]: 0 n (%) | Anemia, Grade 2 [4]: 2 (50.0) n (%) | Anemia, Grade 3 [4]: 0 n (%) | Anemia, Grade 4 [4]: 0 n (%) | Anemia, Grade 5 [4]: 0 n (%) | Anemia, Total [4]: 2 (50.0) n (%) | Any AE, Grade 1 [4]: 0 n (%) | Any AE, Grade 2 [4]: 0 n (%) | Any AE, Grade 3 [4]: 4 (100.0) n (%) | Any AE, Grade 4 [4]: 0 n (%) | Any AE, Grade 5 [4]: 0 n (%) | Any AE, Total [4]: 4 (100.0) n (%) | Appetite decrease, Grade 1 [4]: 1 (25.0) n (%) | Appetite decrease, Grade 2 [4]: 0 n (%) | Appetite decrease, Grade 3 [4]: 1 (25.0) n (%) | Appetite decrease, Grade 4 [4]: 0 n (%) | Appetite decrease, Grade 5 [4]: 0 n (%) | Appetite decrease, Total [4]: 2 (50.0) n (%) | Cellulitis, Grade 1 [4]: 0 n (%) | Cellulitis, Grade 2 [4]: 1 (25.0) n (%) | Cellulitis, Grade 3 [4]: 1 (25.0) n (%) | Cellulitis, Grade 4 [4]: 0 n (%) | Cellulitis, Grade 5 [4]: 0 n (%) | Cellulitis, Total [4]: 2 (50.0) n (%) | Chills, Grade 1 [4]: 2 (50.0) n (%) | Chills, Grade 2 [4]: 0 n (%) | Chills, Grade 3 [4]: 0 n (%) | Chills, Grade 4 [4]: 0 n (%)
